In brackets after ≈: the same amount, converted by molar mass.
How the values were obtained:
80S Ribosome = assay: Inhibition of human ribosome containing eukaryotic wild type ribosomal RNA A-site in rabbit reticulocyte lysates assessed as reduction in ribosome-mediated protein synthesis in presence of S-30 extracts by fire fly luciferase synthesis based cell-free translation assay
[1] = Inhibition of Mycobacterium smegmatis ribosome containing ribosomal RNA A-site G1491C mutant in rabbit reticulocyte lysates assessed as reduction in ribosome-mediated protein synthesis in presence of S-30 extracts by fire fly luciferase synthesis based cell-free translation assay; design: species or system Mycolicibacterium smegmatis
Staphylococcus aureus [2] = assay: Antibacterial activity against methicillin-resistant Staphylococcus aureus isolate AG 039 by broth microdilution assay; assay type: functional
Escherichia coli [3] = assay: Antibacterial activity against Escherichia coli isolate 055 by broth microdilution assay; assay type: functional
Escherichia coli [4] = assay: Antibacterial activity against Escherichia coli isolate 001 by broth microdilution assay; assay type: functional
Ribosome = assay: Inhibition of ribosome-mediated protein synthesis in rabbit reticulocyte lysates in presence of S-30 extracts by fire fly luciferase synthesis based cell-free translation assay; design: species or system Oryctolagus cuniculus
[5] = Inhibition of human ribosome containing eukaryotic ribosomal RNA A-site Cyt14 allele in rabbit reticulocyte lysates assessed as reduction in ribosome-mediated protein synthesis in presence of S-30 extracts by fire fly luciferase synthesis based cell-free translation assay
[6] = Inhibition of human ribosome containing eukaryotic ribosomal RNA A-site A1555G mutant in rabbit reticulocyte lysates assessed as reduction in ribosome-mediated protein synthesis in presence of S-30 extracts by fire fly luciferase synthesis based cell-free translation assay
Staphylococcus aureus [7] = assay: Antibacterial activity against methicillin-resistant Staphylococcus aureus isolate AG 038 by broth microdilution assay; assay type: functional
Escherichia coli [8] = assay: Antibacterial activity against Escherichia coli isolate 006 by broth microdilution assay; assay type: functional
[9] = Inhibition of Mycobacterium smegmatis ribosome containing ribosomal RNA A-site G1491A mutant in rabbit reticulocyte lysates assessed as reduction in ribosome-mediated protein synthesis in presence of S-30 extracts by fire fly luciferase synthesis based cell-free translation assay; design: species or system Mycolicibacterium smegmatis
Escherichia coli [10] = assay: Antibacterial activity against Escherichia coli isolate 003 by broth microdilution assay; assay type: functional
[11] = Inhibition of Mycobacterium smegmatis ribosome containing ribosomal RNA A-site A1408G mutant in rabbit reticulocyte lysates assessed as reduction in ribosome-mediated protein synthesis in presence of S-30 extracts by fire fly luciferase synthesis based cell-free translation assay; design: species or system Mycolicibacterium smegmatis
Staphylococcus aureus [12] = assay: Antibacterial activity against methicillin-resistant Staphylococcus aureus isolate AG 044 by broth microdilution assay; assay type: functional
Staphylococcus aureus [13] = assay: Antibacterial activity against methicillin-resistant Staphylococcus aureus isolate AG 042 by broth microdilution assay; assay type: functional
Bacterial 70S ribosome = assay: Inhibition of Mycobacterium smegmatis ribosome containing wild type ribosomal RNA A-site in rabbit reticulocyte lysates assessed as reduction in ribosome-mediated protein synthesis in presence of S-30 extracts by fire fly luciferase synthesis based cell-free translation assay; design: species or system Mycolicibacterium smegmatis

Structure (SMILES)	IC50 (80S Ribosome) [nM]	IC50 [1] [µg/mL]	MIC (Staphylococcus aureus [2]) [µg/mL]	MIC (Escherichia coli [3]) [µg/mL]	MIC (Escherichia coli [4]) [µg/mL]	IC50 (Ribosome) [µg/mL]	IC50 [5] [µg/mL]	IC50 [6] [µg/mL]	MIC (Staphylococcus aureus [7]) [µg/mL]	MIC (Escherichia coli [8]) [µg/mL]	IC50 [9] [µg/mL]	MIC (Escherichia coli [10]) [µg/mL]	IC50 [11] [µg/mL]	MIC (Staphylococcus aureus [12]) [µg/mL]	MIC (Staphylococcus aureus [13]) [µg/mL]	IC50 (Bacterial 70S ribosome) [nM]
NC[C@@H]1O[C@H](O[C@H]2[C@@H](O)[C@H](O[C@@H]3[C@@H](O)[C@H](N)C[C@H](N)[C@H]3O[C@H]3O[C@H](CO)[C@@H](O[C@H]4O[C@H](CO)[C@H](O)[C@H](O)[C@H]4O)[C@H](O)[C@H]3N)O[C@@H]2CO)[C@H](N)[C@@H](O)[C@@H]1O	2870	118.67	128 (≈ 165 µM)	> 128	> 128	23.75	35.63	14.95	64 (≈ 82.3 µM)	32 (≈ 41.1 µM)	18.68	> 128	12.01	64 (≈ 82.3 µM)	64 (≈ 82.3 µM)	707
NC[C@@H]1O[C@H](O[C@H]2[C@@H](O)[C@H](O[C@@H]3[C@@H](O)[C@H](N)C[C@H](N)[C@H]3O[C@H]3O[C@H](CO)[C@@H](O[C@@H]4O[C@H](CO)[C@H](O)[C@H](O)[C@H]4O)[C@H](O)[C@H]3N)O[C@@H]2CO)[C@H](N)[C@@H](O)[C@@H]1O	182000	623.16	≥ 128	> 128	> 128	104.57	286.76	209.22	≥ 128	128 (≈ 165 µM)	78.05	> 128	36.46	> 128	> 128	1950
NC[C@@H]1O[C@H](O[C@H]2[C@@H](O)[C@H](O[C@@H]3[C@@H](O)[C@H](N)C[C@H](N)[C@H]3O[C@H]3O[C@H](CO)[C@@H](O[C@@H]4O[C@H](CO)[C@@H](O)[C@H](O)[C@H]4O)[C@H](O)[C@H]3N)O[C@@H]2CO)[C@H](N)[C@@H](O)[C@@H]1O	76000	294.83	≥ 128	> 128	> 128	60.75	117.53	83.64	128 (≈ 165 µM)	32 (≈ 41.1 µM)	15.5	> 128	9.32	128 (≈ 165 µM)	> 128	476
NC[C@@H]1O[C@H](O[C@H]2[C@@H](O)[C@H](O[C@@H]3[C@@H](O)[C@H](N)C[C@H](N)[C@H]3O[C@H]3O[C@H](CO)[C@@H](O[C@@H]4O[C@H](CO)[C@@H](O)[C@H](O)[C@@H]4O)[C@H](O)[C@H]3N)O[C@@H]2CO)[C@H](N)[C@@H](O)[C@@H]1O	70200	297.39	≥ 128	> 128	> 128	47.64	90.35	85.7	≥ 128	64 (≈ 82.3 µM)	51.48	> 128	27.91	≥ 128	≥ 128	591
NC[C@@H]1O[C@H](O[C@H]2[C@@H](O)[C@H](O[C@@H]3[C@@H](O)[C@H](N)C[C@H](N)[C@H]3O[C@H]3O[C@H](CO)[C@@H](OCO[C@H]4O[C@H](CO)[C@@H](O)[C@H](O)[C@H]4O)[C@H](O)[C@H]3N)O[C@@H]2CO)[C@H](N)[C@@H](O)[C@@H]1O	29800	200.3	≥ 128	≥ 128	≥ 128	43.14	130.61	96.03	64 (≈ 79.2 µM)	64 (≈ 79.2 µM)	33.45	≥ 128	17.16	64 (≈ 79.2 µM)	128 (≈ 158 µM)	384
NC[C@@H]1O[C@H](O[C@H]2[C@@H](O)[C@H](O[C@@H]3[C@@H](O)[C@H](N)C[C@H](N)[C@H]3O[C@H]3O[C@H](CO)[C@@H](O[C@H]4O[C@H](CO)[C@@H](N)[C@H](O)[C@H]4O)[C@H](O)[C@H]3N)O[C@@H]2CO)[C@H](N)[C@@H](O)[C@@H]1O	438	32.79	8 (≈ 10.3 µM)	32 (≈ 41.2 µM)	32 (≈ 41.2 µM)	19.59	18.95	3.62	4 (≈ 5.15 µM)	2 (≈ 2.57 µM)	6.07	16 (≈ 20.6 µM)	7.06	4 (≈ 5.15 µM)	8 (≈ 10.3 µM)	154
NC[C@@H]1O[C@H](O[C@H]2[C@@H](O)[C@H](O[C@@H]3[C@@H](O)[C@H](N)C[C@H](N)[C@H]3O[C@H]3O[C@H](CO)[C@@H](OCCCc4ccccc4)[C@H](O)[C@H]3N)O[C@@H]2CO)[C@H](N)[C@@H](O)[C@@H]1O	67900	210.73	8 (≈ 10.9 µM)	16 (≈ 21.8 µM)	16 (≈ 21.8 µM)	–	268.57	105.68	2 (≈ 2.73 µM)	8 (≈ 10.9 µM)	51.26	8 (≈ 10.9 µM)	14.52	4 (≈ 5.45 µM)	4 (≈ 5.45 µM)	273
NC[C@@H]1O[C@H](O[C@H]2[C@@H](O)[C@H](O[C@@H]3[C@@H](O)[C@H](N)C[C@H](N)[C@H]3O[C@H]3O[C@H](CO)[C@@H](O)[C@H](O)[C@H]3N)O[C@@H]2CO)[C@H](N)[C@@H](O)[C@@H]1O [PAROMOMYCIN]	82100	10.42	> 256	8 (≈ 13 µM)	16 (≈ 26 µM)	9.78	10.39	5.83	4 (≈ 6.5 µM)	2 (≈ 3.25 µM)	0.57	8 (≈ 13 µM)	0.26	4 (≈ 6.5 µM)	> 256	48.7
NC[C@@H]1O[C@H](O[C@H]2[C@@H](O)[C@H](O[C@@H]3[C@@H](O)[C@H](N)C[C@H](N)[C@H]3O[C@H]3O[C@H](CO)[C@@H](O[C@H]4O[C@H](CO)[C@@H](O)[C@H](O)[C@H]4O)[C@H](O)[C@H]3N)O[C@@H]2CO)[C@H](N)[C@@H](O)[C@@H]1O	2390	109.01	32 (≈ 41.1 µM)	128 (≈ 165 µM)	128 (≈ 165 µM)	30.64	46.26	13.98	32 (≈ 41.1 µM)	16 (≈ 20.6 µM)	27.08	128 (≈ 165 µM)	21.84	16 (≈ 20.6 µM)	32 (≈ 41.1 µM)	411
NC[C@@H]1O[C@H](O[C@H]2[C@@H](O)[C@H](O[C@@H]3[C@@H](O)[C@H](N)C[C@H](N)[C@H]3O[C@H]3O[C@@H]4COC(CCc5ccccc5)O[C@H]4[C@H](O)[C@H]3N)O[C@@H]2CO)[C@H](N)[C@@H](O)[C@@H]1O (some centres undefined)	452000	124.07	8 (≈ 10.9 µM)	32 (≈ 43.7 µM)	32 (≈ 43.7 µM)	–	183.86	126.88	4 (≈ 5.47 µM)	16 (≈ 21.9 µM)	43.01	32 (≈ 43.7 µM)	3.81	16 (≈ 21.9 µM)	4 (≈ 5.47 µM)	137
NC[C@@H]1O[C@H](O[C@H]2[C@@H](O)[C@H](O[C@@H]3[C@@H](O)[C@H](N)C[C@H](N)[C@H]3O[C@H]3O[C@H](CO)[C@@H](O[C@@H]4O[C@H](CO)[C@@H](N)[C@H](O)[C@H]4O)[C@H](O)[C@H]3N)O[C@@H]2CO)[C@H](N)[C@@H](O)[C@@H]1O	9810	32.03	> 64	> 64	> 64	32.41	21.43	17.38	32 (≈ 41.2 µM)	16 (≈ 20.6 µM)	4.87	> 64	2.39	32 (≈ 41.2 µM)	> 64	373

From ChEMBL document CHEMBL3588782, “Synthesis, antiribosomal and antibacterial activity of 4-O-glycopyranosyl paromomycin aminoglycoside antibiotics” (Medchemcomm, 2014)
